Measured values as given in patent US11261160B2, “Process for the preparation of N-(4-(6,7-dimethoxyquinolin-4-yloxy)phenyl)-N′-(4-fluorophenyl)cyclopropane-1, 1-dicarboxamide, (2S)-hydroxybutanedioate and its polymorphs thereof” (MSN LABORATORIES PRIVATE LIMITED, R&D CENTER, priority 2016, dated 2022).

How the values were obtained:
[1] = Hygroscopic stability for 24 hours (P-XRD); assay type: physicochemical; conditions: kept in the desiccator for 24 hours; 3.0 gms sample
Procedure: Hygroscopic Stability for 24 Hours:
Samples of crystalline form-S of Cabozantinib (S)-malate (3.0 gms) is kept in the desiccator for 24 hours.
(§1) PXRD analysis of compounds produced by the present invention were carried out using BRUKER IDS ADVANCE/AXS X-Ray diffractometer using Cu Kα radiation of wavelength 1.5406 A° and continuous scan speed of 0.03°/min.

[2] = Thermal stability at 60° C. (P-XRD); assay type: physicochemical; conditions: heating in a vacuum dryer at 60° C. for 24 hours; 3.0 gms sample
Procedure: Thermal Stability at 60° C.:
Samples of crystalline form-S of Cabozantinib (S)-malate (3.0 gms) is subjected to heating in a vacuum dryer at 60° C. for 24 hours.
as §1

Hygroscopic stability for 24 hours by P-XRD pattern [1]: stable
Thermal stability at 60° C. by P-XRD pattern [2]: stable
SMILES: COc1cc2nccc(Oc3ccc(NC(=O)C4(C(=O)Nc5ccc(F)cc5)CC4)cc3)c2cc1OC.O=C(O)C[C@H](O)C(=O)O [N-(4-(6,7-dimethoxyquinolin-4-yloxy)phenyl)-N′-(4-fluorophenyl)cyclopropane-1,1-dicarboxamide (S)-malate]
